pIC50: −log10 of the molar value. Entries after “also recorded” stand apart in the source; their conditions may differ.
Tests used:
[1] = system: S-1-P aldolase; settings: mode of inhibition, in words; cited from earlier work
[2] = system: permeabilized cells; settings: cellular level / environments with other cellular components, e.g.; cited from earlier work
[3] = system: protein kinase C; settings: in words; cited from earlier work
[4] = system: S-1-P aldolase; assay: time dependent (irreversible) inhibition of S-1-P aldolase; assay type: biochemical; settings: mode of inhibition, in words
[5] = target: T1, rat liver aldolase (Rattus norvegicus, UniProt Q8CHN6); assay: in vitro biological evaluation: inhibition of rat liver aldolase; assay type: biochemical; settings: read-out: IC50, inhibited rat liver aldolase
T1 construct: from tissue; host or cells: rat liver
T1 sequence (Q8CHN6 1-568): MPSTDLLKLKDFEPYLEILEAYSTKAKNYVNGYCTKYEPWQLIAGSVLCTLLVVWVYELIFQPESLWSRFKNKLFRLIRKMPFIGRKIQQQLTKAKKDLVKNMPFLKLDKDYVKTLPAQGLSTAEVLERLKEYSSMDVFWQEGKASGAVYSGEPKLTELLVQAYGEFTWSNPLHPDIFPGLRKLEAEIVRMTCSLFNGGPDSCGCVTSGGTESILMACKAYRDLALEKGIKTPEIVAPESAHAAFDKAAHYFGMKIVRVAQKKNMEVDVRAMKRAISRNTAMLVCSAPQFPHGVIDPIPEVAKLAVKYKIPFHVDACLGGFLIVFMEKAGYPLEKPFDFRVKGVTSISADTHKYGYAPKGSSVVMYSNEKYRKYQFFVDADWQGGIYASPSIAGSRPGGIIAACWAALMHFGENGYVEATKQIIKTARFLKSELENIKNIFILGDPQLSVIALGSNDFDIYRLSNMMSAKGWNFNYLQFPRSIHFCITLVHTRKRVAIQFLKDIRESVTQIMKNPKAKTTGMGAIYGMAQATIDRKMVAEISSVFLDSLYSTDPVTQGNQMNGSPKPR

[6] = system: permeabilized smooth muscle cells; settings: IP3-sensitive and IP3-insensitive pools; cited from earlier work
[7] = system: Swiss 3T3 fibroblasts; settings: in words; cited from earlier work

Row | Structure (SMILES) | time dependent (irreversible) inhibitor of S-1-P aldolase [4] | pIC50 [5] | also measured
1 | CCCCCCCCCCCCCCCC(O)C(N)CP(=O)(O)O (stereo not shown) [DS-1-P, dihydrosphingosine-1-phosphonate] |  |  | inhibition of the S-1-P aldolase reaction [1]: competitive inhibition; toxicity [2]: highly toxic; also recorded: well known toxin
2 | CCCCCCCCCCCCC/C=C/[C@@H](O)[C@@H](N)CO [sphingosine] |  |  | inhibition of protein kinase C [3]: potent and specific inhibitor
3 | CCCCCCCCCCCCC/C=C/[C@@H](O)[C@@H](N)COP(=O)(O)O [Example S-1-P, sphingosine-1-phosphate] |  |  | translocation of calcium from intracellular stores [6]: rapid translocation of calcium from intracellular stores; mitogenic effect in Swiss 3T3 fibroblasts [7]: very potent mitogen
4 | CCCCCCCCCCCCCCCC(O)C(COP(=O)(O)O)NN (stereo not shown) [Example 3, 2-hydrazino deamino dihydrosphingosine-1-phosphate] |  | 6.10 | 

More lines, main results first:

Row | time dependent (irreversible) inhibitor of S-1-P aldolase [4] | pIC50 [5] | Structure (SMILES) | also measured
5 | time dependent (irreversible) inhibitor | 5.96 | C=CC(N)COP(=O)(O)O (stereo not shown) [Example 5, 2-vinyl ethanolamine-O-phosphate] | 
6 | time dependent (irreversible) inhibitor | 5.62 | C=CC(N)(COP(=O)(O)O)C(O)CCCCCCCCCCCCCCC (stereo not shown) [Example 4, 2-vinyl dihydrosphingosine-1-phosphate] | 
